Source: patent EP0796243B1, “DIAMINOCYCLOBUTENE-3,4-DIONES” (AMERICAN HOME PRODUCTS CORPORATION, priority 1994, dated 1996)

System: Isolated Rat Bladder Strips
Experiment: Inhibition of contractions in isolated rat bladder strips (KCl-enhanced contractile activity)
Set-up: species or system Sprague-Dawley rats
Conditions: 0.5 h, concentration required to elicit 50% inhibition of pre-drug contractile activity, additional 15 mM KCl, 30 minute challenge per concentration, value ± spread as printed
Excerpt: Sprague-Dawley rats (150-200 g) are rendered unconscious by CO2 asphyxiation and then euthanized by cervical dislocation. The bladder is removed into warm (37 deg.C) physiological salt solution (PSS) of the following composition (mM): NaCl, 118.4; KCl, 4.7; CaCl2, 2.5; […]; NaHCO3, 24.9; KH2PO4, 1.2; glucose, 11.1; EDTA, 0.023; gassed with […]; pH 7.4. The bladder is opened and then cut into strips 1-2 mm in width and 7-10 mm in length. The strips are subsequently suspended in a 10 mL tissue bath under an initial resting tension of 1.5 g. The strips are held in place by two surgical clips one of which is attached to a fixed hook while the other is attached to an isometric force transducer. […] The carbachol is then washed out and the tissue allowed to relax to its resting level of activity. Following a further 30 min period of recovery an additional 15 mM KCl are introduced into the tissue bath. This increase in KCI concentration results in a large increase in the amplitude of spontaneous contractions (and initiation of contractions in previously quiescent strips) superimposed upon a small increase in basal tone. Following stabilization of this enhanced level of contractile activity, incremental increases in the concentration of test compound or vehicle are introduced into the tissue bath. Contractile activity is measured for each compound or vehicle concentration during the last minute of a 30 minute challenge.
The isometric force developed by the bladder strips is measured using a […] to elicit 50% inhibition of pre-drug contractile activity (IC50 concentration) is calculated from this concentration-response curve.

SMILES	IC50
CC(=O)N(c1ccncc1)c1c(N[C@H](C)C(C)(C)C)c(=O)c1=O [Example 24, (R)-N-[3,4-Dioxo-2-(1,2,2-trimethyl-propylamino)-cyclobut-1-enyl]-N-(pyridin-4-yl)-acetamide]	2500 ± 200 nM
CC(=O)N(c1ccc(C#N)c(Cl)c1)c1c(N[C@H](C)C(C)(C)C)c(=O)c1=O [Example 33, (R)-(-)-N-(3-Chloro-4-cyano-phenyl)-N-[3,4-dioxo-2-(1,2,2-trimethyl-propylamino)-cyclobut-1-enyl]-acetamide]	190 ± 10 nM
CC(=O)N(c1ccncc1)c1c(NC2CC3CCC2C3)c(=O)c1=O (racemic) [Example 21, (endo)-N-[2-(Bicyclo[2,2,1]hept-2-ylamino)-3,4-dioxo-cyclobut-1-enyl]-N-(pyridin-4-yl)-acetamide]	10600 nM
CCc1cc(C#N)ccc1N(C(=O)C1CCCCC1)c1c(N[C@H](C)C(C)(C)C)c(=O)c1=O [Example 32, (R)-(-)-N-(4-cyano-2-ethyl-phenyl)-N-[3,4-dioxo-2-(1,2,2-trimethyl-propylamino)-cyclobut-1-enyl]-cyclohexanecarboxamide]	630 ± 65 nM
CC(=O)N(c1ccc(C#N)cc1)c1c(NC2CC3CCC2C3)c(=O)c1=O (racemic) [Example 17, N-(endo)-[2-(Bicyclo[2,2,1]hept-2-ylamino)-3,4-dioxo-cyclobut-1-enyl]-N-(4-cyano-phenyl)-acetamide]	1840 ± 360 nM
CC(=O)N(c1cccnc1)c1c(N[C@H](C)C(C)(C)C)c(=O)c1=O [Example 23, (R)-N-[3,4-Dioxo-2-(1,2,2-trimethyl-propylamino)-cyclobut-1-enyl]-N-(pyridin-3-yl)-acetamide]	7200 ± 1600 nM
CCCCC(=O)N(c1ccncc1)c1c(N[C@H](C)C(C)(C)C)c(=O)c1=O [Example 26, (R)-(-)-N-(3,4-Dioxo-2-(1,2,2-trimethyl-propylamino)-cyclobut-1-enyl]-N-(pyridin-4-yl)-pentylamide]	4900 ± 1200 nM
CCCCC(=O)N(c1ccc(C#N)cc1CC)c1c(N[C@H](C)C(C)(C)C)c(=O)c1=O [Example 31, (R)-(-)-N-(4-Cyano-2-ethyl-phenyl)-N-[3,4-dioxo-2-(1,2,2-trimethyl-propylamino)-cyclobut-1-enyl]-pentanamide]	610 ± 200 nM
CC(=O)N(c1cccc(C#N)c1)c1c(NC(C)C(C)(C)C)c(=O)c1=O (stereo not drawn) [Example 14, N-(3-Cyano-phenyl)-N-[3,4-dioxo-2-(1,2,2-trimethyl-propylamino)-cyclobut-1-enyl]-acetamide]	3200 ± 920 nM
CC(C)C(=O)N(c1ccc(C#N)cc1)c1c(NC(C)C(C)(C)C)c(=O)c1=O (stereo not drawn) [Example 6, N-(4-Cyano-phenyl)-N-[3,4-dioxo-2-(1,2,2-trimethyl-propylamino)-cyclobut-1-enyl]-isobutyramide]	570 ± 200 nM
CCC(=O)N(c1ccc(C#N)cc1)c1c(NC(C)C(C)(C)C)c(=O)c1=O (stereo not drawn) [Example 1, N-(4-Cyano-phenyl)-N-[3,4-dioxo-2-(1,2,2-trimethyl-propylamino)-cyclobut-1-enyl]-propionamide]	500 nM
CCCCNc1c(N(C(C)=O)c2ccc(C#N)cc2)c(=O)c1=O [Example 16, N-(2-Butylamino-3,4-dioxo-cyclobut-1-enyl)-N-(4-cyano-phenyl)-acetamide]	1240 ± 540 nM
CC(C)CC(=O)N(c1ccncc1)c1c(N[C@H](C)C(C)(C)C)c(=O)c1=O [Example 25, (R)-N-[3,4-Dioxo-2-(1,2,2-trimethyl-propylamino)-cyclobut-1-enyl]-3-methyl-N-(pyridin-4-yl)-butyramide]	10800 ± 1600 nM
CC(=O)N(c1ccc(C#N)cc1)c1c(NC(C)C)c(=O)c1=O [Example 11, N-(4-Cyano-phenyl)-N-[3,4-dioxo-2-isopropylamino-cyclobut-1-enyl]-acetamide]	9700 ± 4100 nM

The remaining molecules from weak to strong by IC50, led by results:

IC50	SMILES
370 ± 80 nM	CC(Nc1c(N(C(=O)C=Cc2ccccc2)c2ccc(C#N)cc2)c(=O)c1=O)C(C)(C)C (stereo not drawn) [Example 7, N-(4-Cyano-phenyl)-N-[3,4-dioxo-2-(1,2,2-trimethyl-propylamino)cyclobut-1-enyl]-3-phenyl-acrylamide]
350 ± 100 nM	CCc1cc(C#N)ccc1N(C(C)=O)c1c(N[C@H](C)C(C)(C)C)c(=O)c1=O [Example 30, (R)-(-)-N-(4-Cyano-2-ethyl-phenyl)-N-[3,4-dioxo-2-(1,2,2-trimethyl-propylamino)-cyclobut-1-enyl]-acetamide]
350 ± 100 nM	CCCCCC(=O)N(c1ccc(C#N)cc1)c1c(NC(C)C(C)(C)C)c(=O)c1=O (stereo not drawn) [Example 5, Hexanoic acid (4-cyano-phenyl)-[3,4-dioxo-2-(1,2,2-trimethyl-propylamino)-cyclobut-1-enyl]-amide]
310 ± 50 nM	CC(=O)N(c1ccc(C#N)cc1)c1c(N[C@H](C)C(C)(C)C)c(=O)c1=O [Example 10, (R)-(-)-N-(4-Cyano-phenyl)-N-[3,4-dioxo-2-(1,2,2-trimethyl-propylamino)-cyclobut-1-enyl]-acetamide]
290 ± 40 nM	CC(Nc1c(N(C(=O)c2ccccc2)c2ccc(C#N)cc2)c(=O)c1=O)C(C)(C)C (stereo not drawn) [Example 2, N-(4-Cyano-phenyl)-N-[3,4-dioxo-2-(1,2,2-trimethyl-propylamino)-cyclobut-1-enyl]-benzamide]
270 ± 20 nM	C/C=C/C(=O)N(c1ccc(C#N)cc1CC)c1c(N[C@H](C)C(C)(C)C)c(=O)c1=O [Example 29, (R)-(-)-N-(4-Cyano-2-ethylphenyl)-N-[3,4-dioxo-2-(1,2,2-trimethyl-propylamino)-cyclobut-1-enyl]-crotonamide]
230 ± 50 nM	CC(=O)N(c1ccc(C#N)cc1)c1c(NC(C)C(C)(C)C)c(=O)c1=O (stereo not drawn) [Example 9, N-(4-Cyano-phenyl)-N-[3,4-dioxo-2-(1,2,2-trimethyl-propylamino)-cyclobut-1-enyl]-acetamide]
220 ± 200 nM	CCC(=O)N(c1ccc(C#N)cc1CC)c1c(N[C@H](C)C(C)(C)C)c(=O)c1=O [Example 28, (R)-N-(4-Cyano-2-ethyl-phenyl)-N-[3,4-dioxo-2-(1,2,2-trimethyl-propylamino)-cyclobut-1-enyl]-propionamide]
200 ± 100 nM	CC(=O)N(c1ccc(C#N)cc1)c1c(NC(C)C(C)C)c(=O)c1=O (stereo not drawn) [Example 13, N-(4-Cyano-phenyl)-N-[2-(1,2-dimethyl-propylamino)-3,4-dioxo-cyclobut-1-enyl]-acetamide]
170 ± 4 nM	CCCC(=O)N(c1ccc(C#N)cc1CC)c1c(N[C@H](C)C(C)(C)C)c(=O)c1=O [Example 27, (R)-(-)-N-(4-Cyano-2-ethyl-phenyl)-N-[3,4-dioxo-2-(1,2,2-trimethyl-propylamino)-cyclobut-1-enyl]-butyramide]
